# According to patent publication US9855270B2, “Methods and compositions for modulating estrogen receptor mutants” (priority 2014, dated 2018):
# Like-named read-outs stand apart in the source and are kept apart here.
# Key:
# Experiment in all cases: cells
# Type in all cases: cell-based
# [1] = test system: MCF-7 cells stably expressing UbC HA-ER-α Y537N; conditions: UbC HA-ER-α Y537N; for EC50: Homo sapiens, MCF7, read-out: Potency (EC50; nM); for Efficacy (Emax): Day 5 relative to Day 0; for Percent inhibition compared to vehicle: 5-Day Incubation
# Excerpt: (§1) MCF-7 Mutant ER-α Stable Cell Line Generation: MCF-7 cells stably expressing wild-type or ER-α mutants were generated by subcloning ESR1 wild-type and mutant cDNAs containing an amino terminal hemagglutinin tag into pCDH-EF1-MCS-(PGK-Puro) (referred to as EF1 HA-ER-α) and pCDH-UbC-MCS-EF1-Hygro (referred to as UbC HA-ER-α) (System Biosciences). The resulting plasmids, in addition to an empty vector negative control, were subsequently cotransfected into HEK293T cells with the pPACKH1 packaging plasmid mix (System Biosciences) according to the manufacturer's protocol. Four days post transfection lentiviral particles were purified from the cell medium, tiered and stored at −80° C. MCF-7 cells were transduced with the purified viral particles and stable cell lines were selected by growth in RPMI containing 10% FBS plus 1 μG/mL puromycin or 200 μG/mL hygromycin for pCDH-EF1-MCS-(PGK-Puro) and pCDH-UbC-MCS-EF1-Hygro, respectively.
# (§2) MCF-7 Stable Cell Line Viability: MCF-7 cells were enumerated with a hemacytometer adjusted to a concentration of 40,000 cells per mL in Phenol Free RPMI containing 10% CSS with NEAA and Sodium Pyruvate. 16 microliters of the cell suspension was added to each well of a 384 well tissue culture treated white clear bottom polystyrene plate (Corning) using a Matrix 16 channel electronic pipette. The cells were incubated overnight to allow the cells to adhere. The following day, 16 microliters of Phenol Free RPMI containing 10% CSS with NEAA and Sodium Pyruvate was added to the wells of one plate, followed by 16 μL of CellTiter-Glo (Promega, Madison Wis.) luminescent cell viability reagent using a Matrix 16 channel electronic pipette. […] The “average” of the relative luminescence units (RLUs) of the wells are considered to be the baseline value at time=zero. In addition, a 10 point, 1:5 serial dilution in DMSO (Sigma-Aldrich) was performed using Matrix 12 channel electronic pipette, including DMSO only as […]. 4 μL of each dilution was then added to 196 μL of RPMI containing 10% CSS with NEAA and Sodium Pyruvate. 16 μL of medium containing compound was added to the cells at a final concentration ranging from 10 μM to 5 pM. Compound dilution in media and subsequent addition to cells were carried out using Matrix 12 channel electronic pipettes. After 5 day compound exposure, 16 μL of CellTiter-Glo (Promega, Madison Wis.) luminescent cell viability reagent was added to the cells using a Matrix 16 channel electronic pipette. CellTiter-Glo added to 32 μL of medium without cells was used to obtain a background value. […] The relative luminescence units (RLUs) of each well were measured, and relative proliferation (fold) of each sample was determined as follows: (RLU sample−RLU background)/(RLU at T=0)=relative proliferation
# (§3) The UbC promoter is reported by the manufacturer (System Biosciences) to express low to moderate RNA levels while the EF1 promoter expresses high levels (System Biosciences).
# [2] = test system: MCF-7 cells stably expressing EF1 HA-ER-α L536R; conditions: EF1 HA-ER-α L536R; for Efficacy (Emax): Day 5 relative to Day 0; for Percent inhibition compared to vehicle: 5-Day Incubation; for EC50: Homo sapiens, MCF7, read-out: Potency (EC50; nM)
# Excerpt: as §1, §2, §3
# [3] = test system: MCF-7 cells stably expressing UbC HA-ER-α L536P; conditions: for EC50: Homo sapiens, MCF7, read-out: Potency (EC50; nM)
# Excerpt: as §1, §2, §3
# [4] = test system: MCF-7 cells stably expressing EF1 HA-ER-α L536P; conditions: EF1 HA-ER-α L536P; for Efficacy (Emax): Day 5 relative to Day 0; for Percent inhibition compared to vehicle: 5-Day Incubation; for EC50: Homo sapiens, MCF7, read-out: Potency (EC50; nM)
# Excerpt: as §1, §2, §3
# [5] = test system: MCF-7 cells stably expressing EF1 HA-ER-α Y537N; conditions: EF1 HA-ER-α Y537N; for Efficacy (Emax): Day 5 relative to Day 0; for EC50: Homo sapiens, MCF7, read-out: Potency (EC50; nM)
# Excerpt: as §1, §2, §3
# [6] = test system: MCF-7 cells stably expressing UbC HA-ER-α E380Q; conditions: UbC HA-ER-α E380Q; for EC50: Homo sapiens, MCF7, read-out: Potency (EC50; nM); for Efficacy (Emax): Day 5 relative to Day 0; for Percent inhibition compared to vehicle: 5-Day Incubation
# Excerpt: as §1, §2, §3
# [7] = test system: MCF-7 cells stably expressing EF1 HA-ER-α E380Q; conditions: EF1 HA-ER-α E380Q; for Efficacy (Emax): Day 5 relative to Day 0; for Percent inhibition compared to vehicle: 5-Day Incubation; for EC50: Homo sapiens, MCF7, read-out: Potency (EC50; nM)
# Excerpt: as §1, §2, §3
# [8] = test system: MCF-7 cells stably expressing UbC HA-ER-α L536R; conditions: UbC HA-ER-α L536R; for EC50: Homo sapiens, MCF7, read-out: Potency (EC50; nM); for Efficacy (Emax): Day 5 relative to Day 0; for Percent inhibition compared to vehicle: 5-Day Incubation
# Excerpt: as §1, §2, §3
# [9] = Agonist Mode, −E2, Day 5 relative to Day 0
# [10] = Antagonist Mode, +E2, Day 5 relative to Day 0
# [11] = Antagonist Mode, −E2 (Table 27)
# [12] = Antagonist Mode, +E2, 5-Day Incubation
smiles,measurement,setting,value
C[C@]12CC[C@@H]3c4ccc(O)cc4CC[C@H]3[C@@H]1CC[C@@H]2O [17β-Estradiol],EC50,"[1]; Agonist Mode, −E2",0.126 ± 0.233 nM
same,Efficacy (Emax),"[1]; Antagonist Mode, +E2",6.49 ± 0.97
same,Efficacy (Emax),"[2]; Agonist Mode, −E2",6.93 ± 1.50
same,Efficacy (Emax),"[2]; Antagonist Mode, +E2",6.83 ± 1.36
same,Efficacy (Emax),[3]; [9],5.06 ± 0.76
same,Efficacy (Emax),[3]; [10],5.66 ± 0.52
same,EC50,"[3]; Agonist Mode, −E2",0.212 ± 0.401 nM
same,Efficacy (Emax),"[4]; Agonist Mode, −E2",8.49 ± 0.94
same,Efficacy (Emax),"[4]; Antagonist Mode, +E2",9.07 ± 0.12
same,Efficacy (Emax),"[5]; Agonist Mode, −E2",5.52 ± 0.43
same,EC50,"[6]; Agonist Mode, −E2",0.013 ± 0.011 nM
same,Efficacy (Emax),"[6]; Agonist Mode, −E2",7.36 ± 1.07
same,Efficacy (Emax),"[6]; Antagonist Mode, +E2",7.69 ± 1.94
same,Efficacy (Emax),"[7]; Antagonist Mode, +E2",5.75 ± 0.17
same,EC50,"[8]; Agonist Mode, −E2",0.008 ± 0.006 nM
same,Efficacy (Emax),"[8]; Agonist Mode, −E2",5.72 ± 0.74
same,Efficacy (Emax),"[8]; Antagonist Mode, +E2",5.92 ± 0.67
C[C@]12CC[C@@H]3c4ccc(O)cc4C[C@@H](CCCCCCCCC[S+]([O-])CCCC(F)(F)C(F)(F)F)[C@H]3[C@@H]1CC[C@@H]2O (some centres unmarked) [Fulvestrant],EC50,"[1]; Agonist Mode, −E2",0.355 ± 0.163 nM
same,EC50,"[1]; Antagonist Mode, +E2",1.77 ± 0.387 nM
same,Percent inhibition compared to vehicle,"[1]; Agonist Mode, −E2",63%
same,Efficacy (Emax),"[1]; Agonist Mode, −E2",1.61 ± 0.15
same,Percent inhibition compared to vehicle,"[1]; Antagonist Mode, +E2",77%
same,Efficacy (Emax),"[1]; Antagonist Mode, +E2",1.49 ± 0.00
same,Percent inhibition compared to vehicle,"[2]; Agonist Mode, −E2",42%
same,Efficacy (Emax),"[2]; Agonist Mode, −E2",3.95 ± 0.36
same,Percent inhibition compared to vehicle,"[2]; Antagonist Mode, +E2",48%
same,Efficacy (Emax),"[2]; Antagonist Mode, +E2",3.53 ± 0.28
same,EC50,"[2]; Agonist Mode, −E2",6.29 ± 1.13 nM
same,EC50,"[2]; Antagonist Mode, +E2",35 ± 2.77 nM
same,EC50,[2]; [11],6.29 ± 1.13 nM
same,Percent inhibition compared to vehicle,"[3]; Agonist Mode, −E2, 5-Day Incubation",47%
same,Efficacy (Emax),[3]; [9],1.66 ± 0.11
same,Percent inhibition compared to vehicle,[3]; [12],71%
same,Efficacy (Emax),[3]; [10],1.73 ± 0.08
same,EC50,"[3]; Agonist Mode, −E2",0.298 ± 0.132 nM
same,EC50,"[3]; Antagonist Mode, +E2",2.59 ± 2.58 nM
same,Percent inhibition compared to vehicle,"[4]; Agonist Mode, −E2",56%
same,Efficacy (Emax),"[4]; Agonist Mode, −E2",3.58 ± 0.10
same,Percent inhibition compared to vehicle,"[4]; Antagonist Mode, +E2",60%
same,Efficacy (Emax),"[4]; Antagonist Mode, +E2",3.65 ± 0.56
same,EC50,"[4]; Agonist Mode, −E2",4.51 ± 0.313 nM
same,EC50,"[4]; Antagonist Mode, +E2",16.4 ± 8.21 nM
same,EC50,[4]; [11],4.51 ± 0.313 nM
same,Efficacy (Emax),"[5]; Agonist Mode, −E2",0.52 ± 0.09
same,Percent inhibition compared to vehicle,[5]; [12],90%
same,Efficacy (Emax),"[5]; Antagonist Mode, +E2",0.56 ± 0.02
same,EC50,"[5]; Agonist Mode, −E2",9.26 ± 2.39 nM
same,EC50,"[5]; Antagonist Mode, +E2",12.4 ± 3.52 nM
same,EC50,[5]; [11],9.26 ± 2.39 nM
same,EC50,"[6]; Agonist Mode, −E2",0.248 ± 0.094 nM
same,EC50,"[6]; Antagonist Mode, +E2",1.14 ± 0.028 nM
same,Percent inhibition compared to vehicle,"[6]; Agonist Mode, −E2",60%
same,Efficacy (Emax),"[6]; Agonist Mode, −E2",1.70 ± 0.30
same,Percent inhibition compared to vehicle,"[6]; Antagonist Mode, +E2",76%
same,Efficacy (Emax),"[6]; Antagonist Mode, +E2",1.70 ± 0.32
same,Percent inhibition compared to vehicle,"[7]; Agonist Mode, −E2",62%
same,Efficacy (Emax),"[7]; Agonist Mode, −E2",2.50 ± 0.03
same,Percent inhibition compared to vehicle,"[7]; Antagonist Mode, +E2",65%
same,Efficacy (Emax),"[7]; Antagonist Mode, +E2",2.21 ± 0.12
same,EC50,"[7]; Agonist Mode, −E2",4.36 ± 3.23 nM
same,EC50,"[7]; Antagonist Mode, +E2",10.3 ± 2.62 nM
same,EC50,[7]; [11],4.36 ± 3.23 nM
same,EC50,"[8]; Agonist Mode, −E2",0.257 ± 0.09 nM
same,EC50,"[8]; Antagonist Mode, +E2",2.3 ± 1.81 nM
same,Percent inhibition compared to vehicle,"[8]; Agonist Mode, −E2",55%
same,Efficacy (Emax),"[8]; Agonist Mode, −E2",1.71 ± 0.22
same,Percent inhibition compared to vehicle,"[8]; Antagonist Mode, +E2",71%
same,Efficacy (Emax),"[8]; Antagonist Mode, +E2",1.71 ± 0.16
